Values quoted from earlier work, collected in US8178516B2, “Compositions and method for treatment of chronic inflammatory diseases” (Sylvan Labs, LLC, priority 1992, dated 2012).

What was measured:
myocardial glutathione = conditions: subsequent to experimental ischemia and reperfusion
[1] = system: plasma cysteine, plasma glutathione and red blood cell glutathione; conditions: in vivo

**Q.** Which “increase in myocardial glutathione” value (myocardial glutathione) does the source give for CC(=O)N[C@@H](CS)C(=O)O [N-acetylcysteine] here?
**A.** Its value is 100 fold.

**Q.** And the “levels of plasma cysteine, plasma glutathione and red blood cell glutathione” value [1]?
**A.** The value was “increase”.
